Test results reported in paper PMC4492750, “The discovery of a selective and potent A2a agonist with extended lung retention” (Pharmacology Research & Perspectives, 2015).
“Also recorded” adds a separate entry of the source.

Columns and labels:
heart = test: Investigative rat toxicology study (heart histopathology); format: in vivo
Method: Rats were intratracheally administrated with compound 2 at 150µg/kg and terminated 24 hours after dosing. Rats in the repeated dose groups received compound 2 at dose level of 1 or 30µg/kg for 4 consecutive days and were terminated 24 hours after the last dose.
The animals were sacrificed by exsanguinations from the common carotid artery under isoflurane anesthesia. The external features were inspected and body weights recorded. The lung together with lower part of the trachea was excised from the thoracic cavity, weighed, and inflated with Formalin via the trachea. Other core organs (heart, kidneys, liver and spleen) were also macroscopically examined, weighed and fixed in buffered Formalin. The collected organs were trimmed and processed to paraffin blocks, sectioned (4µm) and stained with Hematoxylin Eosin (HE) for microscopic examination. Additional heart sections from each animal were collected for immunohistochemistry of Troponin T (see below) and for Masson's Trichrome stain.
The IHC was performed by using Ventanan Discovery XT automated slide processing system, according to the manufacturer’s instructions. In brief, after the antigen retrieval process (Std CC1), the Troponin T antibody (Thermo Scientific, MS-295-P1 diluted 1:50 in Antibody Diluent) was applied on the sections for 60 minutes, followed by incubation with rabbit monoclonal anti-mouse (Epitomics catalog no 3021-1) for 60 minutes and a polymer OmniMap-anti-rabbit HRP Multimer for 16 minutes. The reaction was visualized by using ChromoMap DAB kit. The slides were dehydrated in rising concentration of ethanol, cleared in xylene in an Automatic slide strainer (Sakura, US) and mounted manually with Mountex (00842, Histolab Products AB, Sweden).

A3 = target: T1, A3 (Homo sapiens, UniProt P0DMS8); test: Human A3 receptor pharmacology: GTPγ35[S] filter assay on membranes; format: biochemical; set-up: purchased Perkin Elmer ES-012-M400UA; settings: average (SD)
T1 sequence (P0DMS8 1-318): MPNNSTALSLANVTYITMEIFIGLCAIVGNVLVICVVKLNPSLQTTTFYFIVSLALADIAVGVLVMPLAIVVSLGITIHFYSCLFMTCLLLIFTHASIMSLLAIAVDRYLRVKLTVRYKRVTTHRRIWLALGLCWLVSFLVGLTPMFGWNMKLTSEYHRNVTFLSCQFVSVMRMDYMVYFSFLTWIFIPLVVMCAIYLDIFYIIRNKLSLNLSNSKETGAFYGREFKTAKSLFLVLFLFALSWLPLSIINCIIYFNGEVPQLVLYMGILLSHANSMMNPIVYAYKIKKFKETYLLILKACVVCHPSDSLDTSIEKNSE
Method: • Human A2a and A2b receptor pharmacology: Chinese hamster ovary CHO-K1 cells stably expressing human A2a and A2b receptors were used to determine substances agonistic potency and intrinsic activity. […] The signal corresponding to adenosine at 100 μmol/L was used to define 100% intrinsic activity. • Human A3 receptor pharmacology: A3 receptor Gi coupling was measured by GTPγ ^35[S] filter assay at serial dilutions of compound using membranes from Perkin-Elmer. The signal corresponding to the maximal response of NECA at 100 μmol/L was set to 100% intrinsic activity. • Lipopolysaccharide (LPS)-induced TNFα production in primary human peripheral blood mononuclear cells (hTNFα PBMC) and rat mononuclears (rTNFα splenocytes): Human PBMC and rat mononuclear spleen cells were incubated with serial dilutions of compound and stimulated with LPS.
A3 receptor Gi coupling was measured by GTPγ ^35[S] filter assay using membrane from Perkin Elmer (ES-012-M400UA). Membranes (7.5μg/ml final concentration) were incubated with substances in serial dilutions (50mM Hepes, pH 7.4, 5mM MgCl2, 100mM NaCl, 0.01% BSA, 100μM DTT and 25μM GDP) including 1nM of GTPγ ^35[S] (Perkin Elmer - NEG030H) for 2h in room temperature in the assay plate (Corning – 3365). […] After adding 50µl scintillant/well, sealed plates were counted. […]

CCNC(=O)[C@H]1O[C@@H](n2cnc3c(NC(CC)CC)nc(NCCNC(=O)Nc4cc[n+](C)cc4)nc32)[C@H](O)[C@@H]1O [Compound 2, (2S,3S,4R,5R)-N-ethyl-5-[6-(1-ethylpropylamino)-2-[2-[(1-methylpyridin-1-ium-4-yl)carbamoylamino]ethylamino]purin-9-yl]-3,4-dihydroxy-tetrahydrofuran-2-carboxamide]
Heart changes (heart; 1 μg/kg i.t. for 4 days): No changes were observed
Multifocal scar tissue (dense granulation) in heart (heart; 30 μg/kg i.t. for 4 days): three out of five; also recorded: multifocal dense scar tissue in the heart but no acute myocardial necrosis
Dose level with histopathological heart lesions relative to efficacious dose in inflammatory rat lung model (heart; 30 μg/kg vs 10 μg/kg i.t.): threefold
Heart weight relative to body weight (heart; single dose of 150 μg/kg or repeated doses of 30 μg/kg): slightly increased
Multifocal myocardial necrosis (heart; single i.t. dose 150 μg/kg, one day after dose): four of five; also recorded: caused multifocal myocardial necrosis
EC50 (A3): 6.6 µM
